# Experiments:
# [1] = test system: BALB/c mice immunized with human quadrivalent influenza vaccine; type: in vivo
# [2] = test system: BALB/c mice immunized with human quadrivalent influenza vaccine; type: in vivo; details: 16 days post-immunization; flow cytometry; vaccine plus cardiolipin compared to vehicle or vaccine only; FIG. 3A-3H
smiles,measurement,setting,value
CCCCC/C=C\C/C=C\CCCCCCCC(=O)OC[C@H](COP(=O)([O-])OCC(O)COP(=O)([O-])OC[C@@H](COC(=O)CCCCCCC/C=C\C/C=C\CCCCC)OC(=O)CCCCCCC/C=C\C/C=C\CCCCC)OC(=O)CCCCCCC/C=C\C/C=C\CCCCC.[Na+].[Na+] (stereo partly shown) [cardiolipin (C18:2)4],accelerated seroconversion (time post-immunization),"[1]; 100 μg/kg cardiolipin (C18:2)4 mixed with […] TETRA vaccine (1 microgram HA), intramuscular and subcutaneous, cardiolipin booster at day 10, compared to vehicle or vaccine only",7 days
same,vaccine antigen-specific antibodies in sera,"[1]; 13 days post-immunization, 100 μg/kg cardiolipin (C18:2)4 with vaccine, compared to vehicle or vaccine only, FIG. 2A-2B (IgM, IgG)",significantly higher
same,subclasses of virus-specific antibodies elicited (Th1/Th2 response),"[1]; serum IgG, IgG1, IgG2a, IgG2b by ELISA, FIG. 2C-2F","elicited both IgG2a and IgG1 subclasses of virus-specific antibodies, indicating a balanced Th1/Th2 response"
same,"cells producing the examined cytokines (IFN-γ, IL-4 and IL-17A) in inguinal lymph nodes",[2],significant increase

# Source: US11786592B2, “Compositions of cardiolipin adjuvants and methods of use thereof” (The University of Hong Kong, priority 2021, dated 2023)
